In publication PMC5321205 (Journal of medicinal chemistry, 2016):

How the values were obtained:
[1] = tested on: α1-acid glycoprotein (AGP); assay: SPR
[2] = target: human serum albumin (HSA) (Homo sapiens, UniProt P02768); assay: SPR
[3] = target: T1, hCB2R (Homo sapiens, UniProt P34972); assay: cAMP determination assay, forskolin-stimulated HEK293-CB2R cells; settings: for effect on forskolin-stimulated cAMP accumulation, preliminary screening: 200 nM and 1 μM; for effect on forskolin-stimulated cAMP accumulation, preliminary screening / CB2 functional profile in cAMP assay: HEK293-CB2R cells; for CB2R antagonism of CP55,940 effect in cAMP assay: CP55,940 100 nM and 1 μM, compound at 200 nM (31 also at 1 μM)
T1 sequence (P34972 whole entry): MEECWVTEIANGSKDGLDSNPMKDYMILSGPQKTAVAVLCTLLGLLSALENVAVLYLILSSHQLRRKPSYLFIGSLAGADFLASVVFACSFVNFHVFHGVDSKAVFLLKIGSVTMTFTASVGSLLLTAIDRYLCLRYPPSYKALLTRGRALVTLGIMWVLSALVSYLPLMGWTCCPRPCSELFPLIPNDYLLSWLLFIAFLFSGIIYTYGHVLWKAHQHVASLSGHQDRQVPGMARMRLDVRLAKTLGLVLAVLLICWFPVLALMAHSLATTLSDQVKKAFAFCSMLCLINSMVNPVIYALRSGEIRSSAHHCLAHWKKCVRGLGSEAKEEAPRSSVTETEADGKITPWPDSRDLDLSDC

[4] = target: T1, hCB2R; assay: [35S]-GTPγS binding assay, CB2R-containing membranes
[5] = target: human CB2 (hCB2) cannabinoid receptor (Homo sapiens, UniProt P34972); assay: [3H]-CP55,940 radioligand competition binding, hCB2 membranes
Chain of human CB2 (hCB2) cannabinoid receptor (P34972 whole entry): as above

[6] = target: human CB1 (hCB1) cannabinoid receptor (Homo sapiens, UniProt P21554); assay: biochemical; type: binding
Chain of human CB1 (hCB1) cannabinoid receptor (P21554 whole entry): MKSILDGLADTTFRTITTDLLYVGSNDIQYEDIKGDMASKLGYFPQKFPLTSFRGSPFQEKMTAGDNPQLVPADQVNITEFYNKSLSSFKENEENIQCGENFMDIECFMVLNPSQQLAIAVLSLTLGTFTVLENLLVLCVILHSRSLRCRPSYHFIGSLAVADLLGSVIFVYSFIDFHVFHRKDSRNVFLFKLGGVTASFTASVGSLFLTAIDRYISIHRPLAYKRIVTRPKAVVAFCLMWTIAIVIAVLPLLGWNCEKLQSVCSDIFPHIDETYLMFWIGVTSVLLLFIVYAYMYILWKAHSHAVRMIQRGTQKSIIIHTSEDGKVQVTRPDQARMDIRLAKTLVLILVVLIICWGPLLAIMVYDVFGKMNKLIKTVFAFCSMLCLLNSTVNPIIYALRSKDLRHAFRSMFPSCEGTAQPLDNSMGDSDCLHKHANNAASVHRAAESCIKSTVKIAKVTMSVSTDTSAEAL

[7] = target: human CB1 receptor (Homo sapiens, UniProt P21554); type: biochemical
Chain of human CB1 receptor (P21554 whole entry): as above

Chain of human serum albumin (HSA) (P02768 25-609): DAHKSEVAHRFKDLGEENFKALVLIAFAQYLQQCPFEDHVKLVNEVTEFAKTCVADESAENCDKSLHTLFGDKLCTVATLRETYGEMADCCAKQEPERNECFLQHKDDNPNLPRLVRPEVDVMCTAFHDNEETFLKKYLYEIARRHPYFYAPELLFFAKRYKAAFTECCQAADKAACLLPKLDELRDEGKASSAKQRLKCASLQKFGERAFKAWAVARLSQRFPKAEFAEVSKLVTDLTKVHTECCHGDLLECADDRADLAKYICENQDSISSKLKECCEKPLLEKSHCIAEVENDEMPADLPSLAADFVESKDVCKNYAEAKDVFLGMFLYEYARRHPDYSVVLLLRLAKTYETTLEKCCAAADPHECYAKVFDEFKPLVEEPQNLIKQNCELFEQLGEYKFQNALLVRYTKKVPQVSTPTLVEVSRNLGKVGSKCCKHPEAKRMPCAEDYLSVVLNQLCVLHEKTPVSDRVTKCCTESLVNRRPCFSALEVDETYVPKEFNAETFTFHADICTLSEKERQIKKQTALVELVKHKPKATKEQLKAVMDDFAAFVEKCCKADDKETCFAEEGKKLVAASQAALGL

| Structure (SMILES) | AGP binding level [1] | HSA binding level [2] | effect on forskolin-stimulated cAMP accumulation, preliminary screening [3] | CB2 functional profile in cAMP assay [3] | other results |
| --- | --- | --- | --- | --- | --- |
| CCCCC/C=C\C/C=C\C/C=C\C/C=C\CCCC(=O)NCCO [AEA, anandamide, reference compound] | very high |  |  |  |  |
| C=C(C)[C@@H]1CCC(C)=C[C@H]1c1c(O)cc(CCCCC)cc1O [CBD, cannabidiol, reference compound] | very high | high |  |  |  |
| CCCCCCC(C)(C)c1ccc([C@@H]2C[C@H](O)CC[C@H]2CCCO)c(O)c1 [CP55,940, reference compound] |  | high |  |  |  |
| CCCCC/C=C\C/C=C\C/C=C\C/C=C\CCCC(=O)OC(CO)CO [Compound 2-AG, 2-arachidonoylglycerol, reference compound] | very high | high |  |  |  |
| CCCCCCC(C)(C)c1cc(OC)c2c(c1)OC(C)(C)c1cn(C)nc1-2 [Compound 16, 7-(1,1-Dimethylheptyl)-2,4-dihydro-9-methox y-2,4,4-trimethylchromeno[4,3-c]pyrazole] |  |  | no effect |  | CB2R antagonism of CP55,940 effect in cAMP assay [3]: able to antagonize the effect of the cannabinoid agonist CP55,940 |
| CCCCCCC(C)(C)c1cc(OC)c2c(c1)OC(C)(C)c1cnn(CC)c1-2 [Compound 17, 7-(1,1-Dimethylheptyl)-1-ethyl-1,4-dihydro-9-methoxy-4,4-dimethylchromeno[4,3-c]pyrazole] |  |  | low to high inhibition | partial or weak agonists |  |
| CCCCCCC(C)(C)c1cc(OC)c2c(c1)OC(C)(C)c1cn(CC)nc1-2 [Compound 18, 7-(1,1-Dimethylheptyl)-2-ethyl-2,4-dihydro-9-methoxy-4,4-dimethylchromeno[4,3-c]pyrazole] | very high | very high | low to high inhibition | partial or weak agonists |  |
| CCCCCCC(C)(C)c1cc(OCc2ccccc2)c2c(c1)OC(C)(C)c1cn[nH]c1-2 [Compound 22, 9-Benzyloxy-2,4-dihydro-7 - (1,1-di m ethylheptyl)-4,4 - dimethylchromeno[4,3-c]pyrazole] |  |  | low to high inhibition | partial or weak agonists |  |
| CCCCCCC(C)(C)c1cc(OCCCO)c2c(c1)OC(C)(C)c1cn[nH]c1-2 [Compound 28, 7-(1,1-Dimethylheptyl)-2,4-dihydro-9-(3-hydroxypropoxy)-4,4-dimethylchromeno[4,3-c]pyrazole] | very high | very high | low to high inhibition | partial or weak agonists |  |
| CCCCCCC(C)(C)c1cc(OCCCO)c2c(c1)OC(C)(C)c1cn(CC)nc1-2 [Compound 31, 7-(1,1-Dimethylheptyl)-2-ethyl-2,4-dihydro-9-(3-hydroxypropoxy)-4,4-dimethylchromeno-[4,3-c]pyrazole] |  |  | no effect |  | CB2R antagonism of CP55,940 effect in cAMP assay [3]: behaved as the CP55,940 antagonist only at the highest concentration |
| CCCCCCC(C)(C)c1cc(OCCO)c2c(c1)OC(C)(C)c1cn[nH]c1-2 [Compound 34, 7-(1,1-Dimethylheptyl)-2,4-dihydro-9-(2-hydroxyethoxy)-4,4-dimethylchromeno[4,3-c]pyra-zole] |  |  | low to high inhibition | potent CB2 agonists | IC50 [4]: 95.1 ± 7.2 nM |
| CCCCCCC(C)(C)c1cc(OCCO)c2c(c1)OC(C)(C)c1cn(C)nc1-2 [Compound 35, 7-(1,1-Dimethylheptyl)-2,4-dihydro-9-(2-hydroxyethoxy)-2,4,4-trimethylchromeno[4,3-c]py-razole] |  |  | no effect |  | CB2R antagonism of CP55,940 effect in cAMP assay [3]: able to antagonize the effect of the cannabinoid agonist CP55,940 |
| CCCCCCC(C)(C)c1cc(OCCO)c2c(c1)OC(C)(C)c1cn(CC)nc1-2 [Compound 36, 7-(1,1-Dimethylheptyl)-2-ethyl-2,4-dihydro-9-(2-hydroxyethoxy)-4,4-dimethylchromeno[4,3-c]pyrazole] | very high | very high |  |  |  |
| CCCCCCC(C)(C)c1cc(OCCCBr)c2c(c1)OC(C)(C)c1cn(C)nc1-2 [Compound 37, 9-(3-Bromopropoxy)-7-(1,1-dimethylheptyl)-2,4-dihydro-2,4,4-trimethylchromeno[4,3-c]py-razole] | very high | very high | low to high inhibition | partial or weak agonists |  |
| CCCCCCC(C)(C)c1cc(OCCBr)c2c(c1)OC(C)(C)c1cnn(CC)c1-2 [Compound 39, 9-(2-Bromoethoxy)-7-(1,1-dimethylheptyl)-1-ethyl-1,4-dihydro-4,4-dimethylchromeno[4,3-c]pyrazole] | medium | medium | low to high inhibition | partial or weak agonists | Ki [5]: 78.7 ± 11.3 nM; Ki [6]: 1330 ± 320 nM |
| CCCCCCC(C)(C)c1cc2c(c3c1CCCO3)-c1c(cnn1CC)C(C)(C)O2 [Compound 40, 7-(1,1-Dimethylheptyl)-1-ethyl-1,4,9,10-tetrahydro-4,4-dimethyl-8H-pyrano[2′,3′:5,6]chrome-no[4,3-c]pyrazole] | medium | medium |  |  |  |
| CCCCCCC(C)(C)c1cc(O)c2c(c1)OC(C)(C)c1cnoc1-2 [Compound 42, 7-(1,1-Dimethylheptyl)-4,4-dimethyl-4H-chromeno[3,4-d]-isoxazol-9-ol] | very high | very high |  |  | fold more potent than 10b and 22 in [35S]-GTPγS binding (CB1R) [7]: at least 10 fold; IC50 [4]: 50.2 ± 24.9 nM |
| CCCCCCC(C)(C)c1cc(OC)c2c(c1)OC(C)(C)c1cnoc1-2 [Compound 43, 7-(1,1-Dimethylheptyl)-9-methoxy-4,4-dimethyl-4H-chromeno-[3,4-d]isoxazole] | medium | medium |  |  | IC50 [4]: 38.6 ± 6.7 nM |
| CCCCCCC(C)(C)c1cc(OCCCO)c2c(c1)OC(C)(C)c1cnoc1-2 [Compound 44, 7-(1,1-Dimethylheptyl)-9-(3-hydroxypropoxy)-4,4-dimethyl-4H-chromeno[3,4-d]isoxazole] |  |  |  |  | IC50 [4]: 540 ± 208 nM |
